Article PMC11589570, “Critical assessment of LC3/GABARAP ligands used for degrader development and ligandability of LC3/GABARAP binding pockets” (Nature Communications, 2024)
Where two headings read alike, the source gives them in different places.

Target: GABARAP (Homo sapiens, UniProt O95166)
Assay type: binding
Parameters: CSP induced: unit not given here
Details: for CSP: GABARAP:TH152 molar ratio 1:2

Sequence of GABARAP (O95166 1-116): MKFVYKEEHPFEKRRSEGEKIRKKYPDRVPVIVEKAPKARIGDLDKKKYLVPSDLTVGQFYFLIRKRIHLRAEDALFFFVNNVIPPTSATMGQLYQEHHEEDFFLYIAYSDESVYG

Q: What does the source list for `CCCCCCC(Sc1nc(Cl)cc(Nc2nc(-c3ccc(C(=O)O)cc3)cs2)n1)C(=O)O` (centres unmarked) [compound 21]?
A: CSP induced (F77 HN resonance, molar ratio TH152:GABARAP 0.125): 0.00585; CSP induced (F77 HN resonance, molar ratio TH152:GABARAP 0.25): 0.01072; CSP induced (F77 HN resonance, molar ratio TH152:GABARAP 0.5): 0.01977; CSP induced (F77 HN resonance, molar ratio TH152:GABARAP 1): 0.04412; CSP induced (F77 HN resonance, molar ratio TH152:GABARAP 2): 0.07555; CSP induced (F77 HN resonance, molar ratio TH152:GABARAP 4): 0.08937; interaction in 2D NMR titration (GABARAP): interacted with TH152 via the LDS binding site; CSP (GABARAP residue A36): 0.025 ppm; CSP (GABARAP residue A39): 0.019 ppm; CSP (GABARAP residue A72): 0.005 ppm; CSP (GABARAP residue A75): 0.00571 ppm; CSP (GABARAP residue A108): 0.038 ppm; CSP (GABARAP residue D27): 0.012 ppm; CSP (GABARAP residue D43): 0.019 ppm; CSP (GABARAP residue D45): 0.052 ppm; CSP (GABARAP residue D54): 0.019 ppm; CSP (GABARAP residue D74): 0.004 ppm; CSP (GABARAP residue D102): 0.027 ppm; CSP (GABARAP residue D111): 0.080 ppm; CSP (GABARAP residue E7, estimated): 0.005 ppm; CSP (GABARAP residue E8): 0.010 ppm; CSP (GABARAP residue E12): 0.005 ppm; CSP (GABARAP residue E17): 0.025 ppm; CSP (GABARAP residue E19): 0.021 ppm; CSP (GABARAP residue E34): 0.056 ppm; CSP (GABARAP residue E73): 0.015 ppm; CSP (GABARAP residue E97): 0.019 ppm; CSP (GABARAP residue E100): 0.010 ppm; CSP (GABARAP residue E101, estimated): 0.015 ppm; CSP (GABARAP residue E112): 0.029 ppm; CSP (GABARAP residue F3): 0.007 ppm; CSP (GABARAP residue F11): 0.00637 ppm; CSP (GABARAP residue F60): 0.060 ppm; CSP (GABARAP residue F62): 0.051 ppm; CSP (GABARAP residue F77): 0.076 ppm; CSP (GABARAP residue F78): 0.035 ppm; CSP (GABARAP residue F79): 0.034 ppm; CSP (GABARAP residue F103): 0.019 ppm; CSP (GABARAP residue F104): 0.027 ppm; CSP (GABARAP residue G18): 0.016 ppm; CSP (GABARAP residue G42): 0.033 ppm; CSP (GABARAP residue G58): 0.028 ppm; CSP (GABARAP residue G116): 0.011 ppm; CSP (GABARAP residue H9, estimated): 0.005 ppm; CSP (GABARAP residue H69): 0.044 ppm; CSP (GABARAP residue H98): 0.018 ppm; CSP (GABARAP residue H99): 0.035 ppm; CSP (GABARAP residue I21): 0.030 ppm; CSP (GABARAP residue I32): 0.077 ppm; CSP (GABARAP residue I41): 0.054 ppm; CSP (GABARAP residue I64): 0.020 ppm; CSP (GABARAP residue I68): 0.084 ppm; CSP (GABARAP residue I107): 0.011 ppm; CSP (GABARAP residue K2): 0.014 ppm; CSP (GABARAP residue K6, estimated): 0.005 ppm; CSP (GABARAP residue K13): 0.013 ppm; CSP (GABARAP residue K20): 0.009 ppm; CSP (GABARAP residue K23): 0.019 ppm; CSP (GABARAP residue K24): 0.039 ppm; CSP (GABARAP residue K35): 0.019 ppm; CSP (GABARAP residue K38): 0.015 ppm; CSP (GABARAP residue K46): 0.079 ppm; CSP (GABARAP residue K47): 0.091 ppm; CSP (GABARAP residue K48): 0.061 ppm; CSP (GABARAP residue K66): 0.014 ppm; CSP (GABARAP residue L44): 0.040 ppm; CSP (GABARAP residue L50): 0.088 ppm; CSP (GABARAP residue L55): 0.088 ppm; CSP (GABARAP residue L63): 0.085 ppm; CSP (GABARAP residue L70): 0.021 ppm; CSP (GABARAP residue L76): 0.043 ppm; CSP (GABARAP residue L105): 0.011 ppm; CSP (GABARAP residue M1): 0.016 ppm; CSP (GABARAP residue N81): 0.019 ppm; CSP (GABARAP residue P10, estimated): 0.005 ppm; CSP (GABARAP residue P26, estimated): 0.080 ppm; CSP (GABARAP residue P30, estimated): 0.060 ppm; CSP (GABARAP residue P37, estimated): 0.020 ppm; CSP (GABARAP residue P52, estimated): 0.030 ppm; CSP (GABARAP residue Q59): 0.033 ppm; CSP (GABARAP residue Q96): 0.025 ppm; CSP (GABARAP residue R14, estimated): 0.005 ppm; CSP (GABARAP residue R15, estimated): 0.005 ppm; CSP (GABARAP residue R22): 0.015 ppm; CSP (GABARAP residue R28): 0.021 ppm; CSP (GABARAP residue R40): 0.023 ppm; CSP (GABARAP residue R65): 0.067 ppm; CSP (GABARAP residue R67): 0.024 ppm; CSP (GABARAP residue R71): 0.007 ppm; CSP (GABARAP residue S16): 0.016 ppm; CSP (GABARAP residue S53): 0.013 ppm; CSP (GABARAP residue S110): 0.015 ppm; CSP (GABARAP residue S113): 0.021 ppm; CSP (GABARAP residue T56): 0.032 ppm; CSP (GABARAP residue V29): 0.058 ppm; CSP (GABARAP residue V31): 0.082 ppm; CSP (GABARAP residue V33): 0.031 ppm; CSP (GABARAP residue V51): 0.069 ppm; CSP (GABARAP residue V57): 0.065 ppm; CSP (GABARAP residue V80): 0.037 ppm; CSP (GABARAP residue V114): 0.00433 ppm; CSP (GABARAP residue Y25): 0.070 ppm; CSP (GABARAP residue Y49): 0.168 ppm; CSP (GABARAP residue Y61): 0.053 ppm; CSP (GABARAP residue Y106): 0.025 ppm; CSP (GABARAP residue Y109): 0.022 ppm; CSP (GABARAP residue Y115): 0.00181 ppm; CSP induced (K46 HN resonance, molar ratio TH152:GABARAP 0.125): 0.0126; CSP induced (K46 HN resonance, molar ratio TH152:GABARAP 0.25): 0.02165; CSP induced (K46 HN resonance, molar ratio TH152:GABARAP 0.5): 0.03932; CSP induced (K46 HN resonance, molar ratio TH152:GABARAP 1): 0.07004; CSP induced (K46 HN resonance, molar ratio TH152:GABARAP 2): 0.07915; CSP induced (K46 HN resonance, molar ratio TH152:GABARAP 4): 0.08104; CSP induced (Y25 HN resonance, molar ratio TH152:GABARAP 0.125): 0.00667; CSP induced (Y25 HN resonance, molar ratio TH152:GABARAP 0.25): 0.01133; CSP induced (Y25 HN resonance, molar ratio TH152:GABARAP 0.5): 0.01934; CSP induced (Y25 HN resonance, molar ratio TH152:GABARAP 1): 0.03193; CSP induced (Y25 HN resonance, molar ratio TH152:GABARAP 2): 0.06979; CSP induced (Y25 HN resonance, molar ratio TH152:GABARAP 4): 0.08466
